Laboratory results from patent US12187723B2 (BRISTOL-MYERS SQUIBB COMPANY, priority 2019, dated 2025).

What was measured:
[1] = target: T1, human TLR7 (Homo sapiens, UniProt Q9NYK1); experiment: TLR7 inhibition reporter assay (HEK-Blue SEAP); type: cell-based; details: HEK-Blue cells overexpressing human TLR7, gardiquimod 7.5 μM, 22 hour incubation
T1 construct: host or cells: HEK-Blue cells
T1 sequence (Q9NYK1 27-1049): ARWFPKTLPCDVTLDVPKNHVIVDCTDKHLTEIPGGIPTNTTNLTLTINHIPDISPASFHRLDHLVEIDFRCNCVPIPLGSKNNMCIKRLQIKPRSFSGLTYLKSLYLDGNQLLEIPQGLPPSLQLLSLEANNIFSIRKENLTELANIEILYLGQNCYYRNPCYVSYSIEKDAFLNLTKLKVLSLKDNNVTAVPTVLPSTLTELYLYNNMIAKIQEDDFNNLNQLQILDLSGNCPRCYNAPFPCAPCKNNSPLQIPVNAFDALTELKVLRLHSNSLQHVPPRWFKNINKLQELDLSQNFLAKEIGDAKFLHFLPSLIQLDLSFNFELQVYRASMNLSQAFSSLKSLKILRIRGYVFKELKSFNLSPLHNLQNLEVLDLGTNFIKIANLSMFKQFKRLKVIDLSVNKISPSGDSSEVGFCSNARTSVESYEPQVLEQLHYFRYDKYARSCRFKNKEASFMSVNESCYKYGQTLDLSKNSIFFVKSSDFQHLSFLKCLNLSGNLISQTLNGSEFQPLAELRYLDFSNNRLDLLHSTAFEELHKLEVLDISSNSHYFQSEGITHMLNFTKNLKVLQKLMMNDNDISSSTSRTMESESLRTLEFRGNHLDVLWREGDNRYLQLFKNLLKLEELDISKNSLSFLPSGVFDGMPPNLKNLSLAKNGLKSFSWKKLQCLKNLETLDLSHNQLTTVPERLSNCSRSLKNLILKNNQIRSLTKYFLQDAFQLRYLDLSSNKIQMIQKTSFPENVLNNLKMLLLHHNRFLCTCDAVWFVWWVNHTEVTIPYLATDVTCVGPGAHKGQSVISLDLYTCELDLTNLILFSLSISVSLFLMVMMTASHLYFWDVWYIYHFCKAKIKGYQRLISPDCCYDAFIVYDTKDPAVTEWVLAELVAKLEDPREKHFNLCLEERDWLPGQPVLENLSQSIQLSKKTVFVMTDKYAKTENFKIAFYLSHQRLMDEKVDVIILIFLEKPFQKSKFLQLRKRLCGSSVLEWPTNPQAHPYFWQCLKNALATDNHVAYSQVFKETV
How it was run: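 22 h, 37° C, 5% CO2 incubation; compounds 0.05 nM-50 μM final; TLR7 cells 15000/well, TLR8 20,000/well. Readout: SEAP via HEK-Blue Detection medium. % inhibition = signal reduction versus agonist + DMSO wells, referenced to known inhibitor.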

[2] = target: T2, human TLR9 (Homo sapiens, UniProt Q9NR96); experiment: TLR9 inhibition reporter assay (HEK-Blue SEAP); type: cell-based; details: HEK-Blue cells overexpressing human TLR9, ODN2006 5 nM, 22 hour incubation
T2 construct: host or cells: HEK-Blue cells
T2 sequence (Q9NR96 26-1032): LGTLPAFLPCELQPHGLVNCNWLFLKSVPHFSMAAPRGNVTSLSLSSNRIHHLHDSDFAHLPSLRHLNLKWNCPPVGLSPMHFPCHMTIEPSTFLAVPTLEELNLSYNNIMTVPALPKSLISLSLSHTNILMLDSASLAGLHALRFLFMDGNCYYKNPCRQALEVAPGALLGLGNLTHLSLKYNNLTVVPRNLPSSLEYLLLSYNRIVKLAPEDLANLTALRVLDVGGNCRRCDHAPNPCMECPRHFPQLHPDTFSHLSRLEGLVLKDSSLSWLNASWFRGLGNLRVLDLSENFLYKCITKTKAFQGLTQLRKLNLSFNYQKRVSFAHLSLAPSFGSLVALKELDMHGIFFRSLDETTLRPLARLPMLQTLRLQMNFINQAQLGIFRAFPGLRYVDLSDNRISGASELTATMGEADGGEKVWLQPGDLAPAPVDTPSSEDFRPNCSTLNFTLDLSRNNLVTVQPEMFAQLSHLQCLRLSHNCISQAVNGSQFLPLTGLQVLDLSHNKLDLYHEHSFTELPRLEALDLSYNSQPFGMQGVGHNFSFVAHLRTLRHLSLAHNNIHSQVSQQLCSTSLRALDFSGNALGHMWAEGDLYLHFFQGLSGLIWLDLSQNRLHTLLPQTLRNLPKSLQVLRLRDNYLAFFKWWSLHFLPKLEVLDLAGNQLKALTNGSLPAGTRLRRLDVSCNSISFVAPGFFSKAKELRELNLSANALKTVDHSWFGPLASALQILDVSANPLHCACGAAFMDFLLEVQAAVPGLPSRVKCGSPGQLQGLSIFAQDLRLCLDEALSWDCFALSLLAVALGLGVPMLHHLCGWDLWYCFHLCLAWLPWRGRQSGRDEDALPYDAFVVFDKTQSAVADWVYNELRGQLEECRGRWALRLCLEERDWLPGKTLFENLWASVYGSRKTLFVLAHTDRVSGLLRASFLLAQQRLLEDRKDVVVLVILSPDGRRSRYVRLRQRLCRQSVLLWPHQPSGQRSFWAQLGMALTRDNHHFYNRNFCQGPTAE
How it was run: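 Compound treatment: 30 min, RT, 0.05 nM–50 μM final. Agonist: TLR7 gardiquimod 7.5 μM; TLR8 R848 15.9 μM; TLR9 ODN2006 5 nM. Incubation 22 h, 37 °C, 5% CO2. Readout SEAP, HEK-Blue Detection.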

IC50 [1] [nM] | IC50 [2] [µM] | SMILES
12.3 | 17.2 | COc1cc(-c2cc3[nH]c(=O)n(C4CCN(CC(C)C)CC4)c3cc2C(C)C)cn2ncnc12 [Example 164, 1-(1-isobutylpiperidin-4-yl)-6-isopropyl-5-(8-methoxy-[1,2,4]triazolo[1,5-a]pyridin-6-yl)-1,3-dihydro-2H-benzo[d]imidazol-2-one]
10.9 | 8.72 | CCC(CC)CN1CCC(n2c(=O)[nH]c3cc(-c4cc(OC)c5ncnn5c4)c(C(C)C)cc32)CC1 [Example 165, 1-(1-(2-ethylbutyl)piperidin-4-yl)-6-isopropyl-5-(8-methoxy-[1,2,4]triazolo[1,5-a]pyridin-6-yl)-1,3-dihydro-2H-benzo[d]imidazol-2-one]
1.9 | 14.9 | CCc1cc2c(cc1-c1cc(OC)c3ncnn3c1)[nH]c(=O)n2[C@H]1CC[C@@H](NC2CCOCC2)CC1 [Example 166, 6-ethyl-5-(8-methoxy-[1,2,4]triazolo[1,5-a]pyridin-6-yl)-1-((1s,4s)-4-((tetrahydro-2H-pyran-4-yl)amino)cyclohexyl)-1,3-dihydro-2H-benzo[d]imidazol-2-one]
3.08 | 16.6 | CCc1cc2c(cc1-c1cc(OC)c3ncnn3c1)[nH]c(=O)n2[C@H]1CC[C@@H](NC(C)C)CC1 [Example 167, 6-ethyl-1-((1s,4s)-4-(isopropylamino)cyclohexyl)-5-(8-methoxy-[1,2,4]triazolo[1,5-a]pyridin-6-yl)-1,3-dihydro-2H-benzo[d]imidazol-2-one]
5.45 | 15.2 | CCCN(CCC)[C@H]1CC[C@@H](n2c(=O)[nH]c3cc(-c4cc(OC)c5ncnn5c4)c(CC)cc32)CC1 [Example 168, 1-((1s,4s)-4-(dipropylamino)cyclohexyl)-6-ethyl-5-(8-methoxy-[1,2,4]triazolo[1,5-a]pyridin-6-yl)-1,3-dihydro-2H-benzo[d]imidazol-2-one]
